Laboratory results from publication PMC10066365, “Nemacol is a small molecule inhibitor of C. elegans vesicular acetylcholine transporter with anthelmintic potential” (Nature Communications, 2023).
Where “and” joins values, the source holds several entries; their conditions need not be identical. Identical values can stand only once. Like-named read-outs stand apart in the source and are kept apart here.

Key:
Pristionchus pacificus = Pristionchus pacificus motor disruption dose-response on solid media, 1 h; conditions: for mean % any phene (coiled, jerky-Unc or paralyzed): Pristionchus pacificus young adults, mean of three biological replicates; for EC50: Pristionchus pacificus, 1 h, read-out: P. pacificus motor disruption EC50; for rep 1 atypical locomotion / rep 1 coiled / rep 1 no phene / rep 1 paralyzed / rep 2 atypical locomotion / rep 2 coiled / rep 2 no phene / rep 2 paralyzed: count of 20 animals per trial, one hour
Procedure: Locomotor phenotype analyses were done in 24-well plates with 1 mL of MYOB substrate (27.5 g Trizma HCl, 12 g Trizma Base, 230 g bacto tryptone, 10 g NaCl, 0.4 g cholesterol (95%)) seeded with 25 µL of OP50 Escherichia coli on each well. Each compound was added to the MYOB substrate before pouring to achieve the desired final concentrations of 30 µM or 60 µM after diffusion through the media. Synchronized young adult worms are transferred into each well using a platinum wire pick. A Leica MZ75 stereomicroscope was used to visualize the movement of worms on the solid substrate. The specific dominant locomotor phenotype (i.e. ‘Punc’, ‘paralyzed’, ‘coiler’ or ‘wild-type locomotion’) was scored after the touch on the head with a platinum wire over a ~3–5 s of observation. […] Coiled animals were not scored as paralyzed despite sometimes not responding to light touch.

[1] = system: Dirofilaria immitis microfilariae; assay: Dirofilaria immitis microfilariae immobility assay (DiroImager, 72 h); conditions: Dirofilaria immitis microfilariae
Procedure: We conducted experiments with the Missouri isolate of Dirofilaria immitis in two labs. In the first set of experiments, shown as part of Fig. 3c, D. immitis microfilariae and larval stage 3 (L3) worms were assayed in the laboratories of Bayer Animal Health GmbH (Monheim, Germany). For microfilariae immobility assays, approximately 250 freshly purified microfilariae were cultured in single wells of a 96-well microtiter plate containing supplemented RPMI 1640 medium[68],[69]. […] Microfilariae exposed to medium substituted with 1% DMSO were used as negative controls. Motility of microfilariae was evaluated after 72 h of drug exposure using an image-based approach—DiroImager, developed by Bayer Technology Services. As described in detail in refs. [68],[69], the DiroImager is an automated high-throughput platform that allows for high-resolution optical imaging of an entire 96-well microtiter plate.

C. elegans = C. elegans motor phenotype scoring on solid media (Punc/jerky-unc, coiled, paralyzed), wild-type young adults; type: in vivo, Caenorhabditis elegans; conditions: for any phene, mean % fraction of young adults exhibiting any phenotype (coiled, jerky-Unc or paralyzed) / atypical locomotion (number of animals) / coiled (number of animals) / no phene (number of animals) / paralyzed (number of animals) / any phene (mean % fraction of young adults exhibiting any phenotype: coiled, jerky-Unc or paralyzed): one hour; for any phene, mean % fraction of young adults exhibiting any phenotype (coiled, jerky-Unc or paralyzed) / any phene (mean % fraction of young adults exhibiting any phenotype: coiled, jerky-Unc or paralyzed): mean of three biological replicates; for atypical locomotion (number of animals) / coiled (number of animals) / no phene (number of animals) / paralyzed (number of animals): young adults, 20 animals per trial, single replicate counts; for EC50: Caenorhabditis elegans, read-out: C. elegans - motor disruption EC50
[2] = system: Dirofilaria immitis L3/L4; assay: Dirofilaria immitis L3/L4 motility assay (DiroImager, 72 h); conditions: Dirofilaria immitis L4
[3] = conc 3.75, observed at one hour
[4] = any motor phenotype after 1 h on solid media, ± 95% CI
[5] = 3.75uM, third c14 line of each analog
[6] = 15uM, second c14 line of each analog

O=[N+]([O-])c1ccc(N2CCN(Cc3ccccc3)CC2)cc1 [Nemacol-6]
mean % any phene (coiled, jerky-Unc or paralyzed) (Pristionchus pacificus; [3]): 0%
mean % any phene (coiled, jerky-Unc or paralyzed) (Pristionchus pacificus; conc 15, observed at one hour): 1.667%
mean % any phene (coiled, jerky-Unc or paralyzed) (Pristionchus pacificus; conc 60, observed at one hour): 23.3333%
EC50 (Pristionchus pacificus): > 60 µM
% effect (motility), DIROIM MF ([1]; 0.016 µM): 0%
% effect (motility), DIROIM MF ([1]; 0.08 µM): 0%
% effect (motility), DIROIM MF ([1]; 0.4 µM): 0%
% effect (motility), DIROIM MF ([1]; 2 µM): 0%
% effect (motility), DIROIM MF ([1]; 10 µM): 0%
any phene, mean % fraction of young adults exhibiting any phenotype (coiled, jerky-Unc or paralyzed) (C. elegans; 3.75uM): 0%
atypical locomotion (number of animals) (C. elegans; 3.75uM): 0
coiled (number of animals) (C. elegans; 3.75uM): 0
no phene (number of animals) (C. elegans; 3.75uM): 20
paralyzed (number of animals) (C. elegans; 3.75uM): 0
any phene, mean % fraction of young adults exhibiting any phenotype (coiled, jerky-Unc or paralyzed) (C. elegans; 15uM): 7.5%
atypical locomotion (number of animals) (C. elegans; 15uM): 1 and 0 and 2 and 5
coiled (number of animals) (C. elegans; 15uM): 0
no phene (number of animals) (C. elegans; 15uM): 19 and 20 and 18 and 15
paralyzed (number of animals) (C. elegans; 15uM): 0
any phene, mean % fraction of young adults exhibiting any phenotype (coiled, jerky-Unc or paralyzed) (C. elegans; 60uM): 44.1667%
atypical locomotion (number of animals) (C. elegans; 60uM): 5 and 3 and 4 and 19 and 13
coiled (number of animals) (C. elegans; 60uM): 1 and 0 and 3
no phene (number of animals) (C. elegans; 60uM): 14 and 17 and 12 and 16 and 1 and 7
paralyzed (number of animals) (C. elegans; 60uM): 0
EC50 (C. elegans; 1 h): > 60 µM
% effect (motility), DIROIM L4 ([2]; 2 µM): 5%
% effect (motility), DIROIM L4 ([2]; 10 µM): 6%
% effect (motility), DIROIM L4 ([2]; 50 µM): 20%

O=C(C1CCCCC1)N1CCN(c2ccc([N+](=O)[O-])cc2)CC1 [Nemacol-16]
mean % any phene (coiled, jerky-Unc or paralyzed) (Pristionchus pacificus; [3]): 0% and 3.333%
mean % any phene (coiled, jerky-Unc or paralyzed) (Pristionchus pacificus; conc 15, observed at one hour): 8.333% and 5%
mean % any phene (coiled, jerky-Unc or paralyzed) (Pristionchus pacificus; conc 60, observed at one hour): 36.6667%
EC50 (Pristionchus pacificus): > 60 µM
% effect (motility), DIROIM MF ([1]; 0.016 µM): 0%
% effect (motility), DIROIM MF ([1]; 0.08 µM): 0%
% effect (motility), DIROIM MF ([1]; 0.4 µM): 0%
% effect (motility), DIROIM MF ([1]; 2 µM): 0%
% effect (motility), DIROIM MF ([1]; 10 µM): 40%
any phene, mean % fraction of young adults exhibiting any phenotype (coiled, jerky-Unc or paralyzed) (C. elegans; 3.75uM): 0.8333%
atypical locomotion (number of animals) (C. elegans; 3.75uM): 0 and 1
coiled (number of animals) (C. elegans; 3.75uM): 0
no phene (number of animals) (C. elegans; 3.75uM): 20 and 19
paralyzed (number of animals) (C. elegans; 3.75uM): 0
any phene, mean % fraction of young adults exhibiting any phenotype (coiled, jerky-Unc or paralyzed) (C. elegans; 15uM): 0.8333%
atypical locomotion (number of animals) (C. elegans; 15uM): 0
coiled (number of animals) (C. elegans; 15uM): 0
no phene (number of animals) (C. elegans; 15uM): 20 and 19
paralyzed (number of animals) (C. elegans; 15uM): 0 and 1
any phene, mean % fraction of young adults exhibiting any phenotype (coiled, jerky-Unc or paralyzed) (C. elegans; 60uM): 4.167%
atypical locomotion (number of animals) (C. elegans; 60uM): 4 and 1 and 0
coiled (number of animals) (C. elegans; 60uM): 0
no phene (number of animals) (C. elegans; 60uM): 16 and 19 and 20
paralyzed (number of animals) (C. elegans; 60uM): 0
EC50 (C. elegans; [4]): > 60 µM
% effect (motility), DIROIM L4 ([2]; 2 µM): 0%
% effect (motility), DIROIM L4 ([2]; 10 µM): 10%
% effect (motility), DIROIM L4 ([2]; 50 µM): 35%

O=[N+]([O-])c1ccc(N2CCN(C3CCCCCCC3)CC2)cc1 [Nemacol-21]
mean % any phene (coiled, jerky-Unc or paralyzed) (Pristionchus pacificus; [3]): 0.8333%
mean % any phene (coiled, jerky-Unc or paralyzed) (Pristionchus pacificus; conc 15, observed at one hour): 6.667%
mean % any phene (coiled, jerky-Unc or paralyzed) (Pristionchus pacificus; conc 60, observed at one hour): 50%
EC50 (Pristionchus pacificus): 60 ± 10.2 µM
% effect (motility), DIROIM MF ([1]; 0.016 µM): 0%
% effect (motility), DIROIM MF ([1]; 0.08 µM): 0%
% effect (motility), DIROIM MF ([1]; 0.4 µM): 0%
% effect (motility), DIROIM MF ([1]; 2 µM): 0%
% effect (motility), DIROIM MF ([1]; 10 µM): 0%
any phene (mean % fraction of young adults exhibiting any phenotype: coiled, jerky-Unc or paralyzed) (C. elegans; [5]): 3.333%
any phene (mean % fraction of young adults exhibiting any phenotype: coiled, jerky-Unc or paralyzed) (C. elegans; [6]): 17.5%
EC50 (C. elegans; [4]): 19.6 ± 37.4 µM
% effect (motility), DIROIM L4 ([2]; 10 µM): 0%
% effect (motility), DIROIM L4 ([2]; 50 µM): 0%

CC1CCC(N2CCN(c3ccc(Cl)cc3)CC2)C1 (centres unmarked) [Nemacol-44]
mean % any phene (coiled, jerky-Unc or paralyzed) (Pristionchus pacificus; [3]): 63.3333%
mean % any phene (coiled, jerky-Unc or paralyzed) (Pristionchus pacificus; conc 15, observed at one hour): 90.7456%
mean % any phene (coiled, jerky-Unc or paralyzed) (Pristionchus pacificus; conc 60, observed at one hour): 100%
EC50 (Pristionchus pacificus): 2.5 ± 1 µM
rep 1 atypical locomotion (Pristionchus pacificus; conc 3.75): 3
rep 1 coiled (Pristionchus pacificus; conc 3.75): 0
rep 1 no phene (Pristionchus pacificus; conc 3.75): 17
rep 1 paralyzed (Pristionchus pacificus; conc 3.75): 0
rep 2 atypical locomotion (Pristionchus pacificus; conc 3.75): 10
rep 2 coiled (Pristionchus pacificus; conc 3.75): 8
rep 2 no phene (Pristionchus pacificus; conc 3.75): 2
rep 2 paralyzed (Pristionchus pacificus; conc 3.75): 0
rep 1 atypical locomotion (Pristionchus pacificus; conc 15): 13
rep 1 coiled (Pristionchus pacificus; conc 15): 7
rep 1 no phene (Pristionchus pacificus; conc 15): 0
rep 1 paralyzed (Pristionchus pacificus; conc 15): 0
rep 2 atypical locomotion (Pristionchus pacificus; conc 15): 0
rep 2 coiled (Pristionchus pacificus; conc 15): 14
rep 2 no phene (Pristionchus pacificus; conc 15): 0
rep 2 paralyzed (Pristionchus pacificus; conc 15): 6
rep 1 atypical locomotion (Pristionchus pacificus; conc 60): 2
rep 1 coiled (Pristionchus pacificus; conc 60): 5
rep 1 no phene (Pristionchus pacificus; conc 60): 0
rep 1 paralyzed (Pristionchus pacificus; conc 60): 13
rep 2 atypical locomotion (Pristionchus pacificus; conc 60): 1
rep 2 coiled (Pristionchus pacificus; conc 60): 7
rep 2 no phene (Pristionchus pacificus; conc 60): 0
rep 2 paralyzed (Pristionchus pacificus; conc 60): 12
% effect (motility), DIROIM MF ([1]; 0.016 µM): 0%
% effect (motility), DIROIM MF ([1]; 0.08 µM): 0%
% effect (motility), DIROIM MF ([1]; 0.4 µM): 0%
% effect (motility), DIROIM MF ([1]; 2 µM): 0%
% effect (motility), DIROIM MF ([1]; 10 µM): 0%
any phene (mean % fraction of young adults exhibiting any phenotype: coiled, jerky-Unc or paralyzed) (C. elegans; [5]): 80%
any phene (mean % fraction of young adults exhibiting any phenotype: coiled, jerky-Unc or paralyzed) (C. elegans; [6]): 100%
any phene (mean % fraction of young adults exhibiting any phenotype: coiled, jerky-Unc or paralyzed) (C. elegans; 60uM, first c14 line of each analog): 100%
EC50 (C. elegans; [4]): 3.4 µM
% effect (motility), DIROIM L4 ([2]; 2 µM): 0%
% effect (motility), DIROIM L4 ([2]; 10 µM): 0%
% effect (motility), DIROIM L4 ([2]; 50 µM): 10%
